{"source": "patent US20040157863A1", "about": "“Triazolopyrimidines” (priority 2001, published 2004)", "key": {"[1]": {"assay": "logP (HPLC)"}, "[2]": {"tested_on": "Podosphaera leucotricha", "assay": "Podosphaera test (apple)/protective", "conditions": "apple plants, protective spray, application rate 100 g/ha, evaluation 10 days after inoculation"}, "[3]": {"tested_on": "Venturia inaequalis", "assay": "Venturia test (apple)/protective", "conditions": "apple plants, protective spray, application rate 100 g/ha, evaluation 12 days after inoculation"}}, "note": "Like-named read-outs stand apart in the source and are kept apart here.", "data": [{"smiles": "CSc1nc2nc(Cl)c(-c3c(F)cc(F)cc3F)c(N3CCC(C(F)(F)F)CC3)n2n1", "note": "[Example 1, 5-chloro-2-(methylsulphanyl)-7-[4-(trifluoromethyl)-1-piperidinyl]-6-(2,4,6-trifluorophenyl)-[1,2,4]triazolo[1,5-a]pyrimidine]", "values": [{"measurement": "chromatographic logP", "setting": "[1]", "value": 4.1}]}, {"smiles": "C[C@H](Nc1c(-c2c(F)cc(F)cc2F)c(Cl)nc2nc(S(C)(=O)=O)nn12)C(F)(F)F", "note": "[Example 2a, 5-chloro-2-(methylsulphonyl)-N-[(1S)-2,2,2-trifluoro-1-methylethyl]-6-(2,4,6-tri-fluorophenyl)[1,2,4]triazolo[1,5-a]pyrimidin-7-amine]", "values": [{"measurement": "chromatographic logP", "setting": "[1]; HPLC", "value": 2.94}]}, {"smiles": "C[C@H](Nc1c(-c2c(F)cc(F)cc2F)c(Cl)nc2nc([S+](C)[O-])nn12)C(F)(F)F", "note": "(stereo partly drawn) [Example 2b, 5-chloro-2-(methylsulphinyl)-N-[(1S)-2,2,2-trifluoro-1-methylethyl]-6-(2,4,6-trifluorophenyl)[1,2,4]triazolo[1,5-a]pyrimidin-7-amine]", "values": [{"measurement": "chromatographic logP", "setting": "[1]; HPLC", "value": 2.5}]}, {"smiles": "CSc1nc2nc(Cl)c(-c3c(F)cc(F)cc3F)c(Cl)n2n1", "note": "[Example 568, 5,7-dichloro-2-(methylsulphanyl)-6-(2,4,6-trifluorophenyl)-[1,2,4]triazolo[1,5-a]pyrimidine]", "values": [{"measurement": "chromatographic logP", "setting": "[1]", "value": 3.43}]}, {"smiles": "CSc1nc2nc(Cl)c(-c3c(Cl)cccc3Cl)c(Cl)n2n1", "note": "[Example 572]", "values": [{"measurement": "chromatographic logP", "setting": "[1]", "value": 3.86}]}, {"smiles": "CSc1nc2nc(O)c(-c3c(F)cc(F)cc3F)c(O)n2n1", "note": "[Example 585, 2-methylsulphanyl-6-(2,4,6-trifluoro-phenyl)-[1,2,4]triazolo[1,5-a]pyrimidine-5,7-diol]", "values": [{"measurement": "chromatographic logP", "setting": "[1]", "value": 0.47}]}, {"smiles": "CS(=O)(=O)c1nc2nc(Cl)c(-c3c(Cl)cccc3Cl)c(NC3CCCC3)n2n1", "note": "[compound 6]", "values": [{"measurement": "chromatographic logP", "setting": "[1]; HPLC (gradient method)", "value": 3.35}]}, {"smiles": "CSc1nc2nc(Cl)c(-c3c(Cl)cccc3Cl)c(N[C@@H](C)C(F)(F)F)n2n1", "note": "[compound 8]", "values": [{"measurement": "chromatographic logP", "setting": "[1]; HPLC (gradient method)", "value": 3.82}]}, {"smiles": "CSc1nc2nc(Cl)c(-c3c(F)cc(F)cc3F)c(N[C@@H](C)C(F)(F)F)n2n1", "note": "[compound 9]", "values": [{"measurement": "chromatographic logP", "setting": "[1]; HPLC (gradient method)", "value": 3.58}]}, {"smiles": "CSc1nc2nc(Cl)c(-c3c(Cl)cccc3Cl)c(N[C@@H](C)C(F)(F)F)n2n1", "note": "[drawing 57]", "values": [{"measurement": "Efficacy in %", "setting": "[2]", "value": 100, "unit": "%"}]}, {"smiles": "CSc1nc2nc(Cl)c(-c3c(F)cc(F)cc3F)c(N[C@@H](C)C(F)(F)F)n2n1", "note": "[drawing 58]", "values": [{"measurement": "Efficacy in %", "setting": "[2]", "value": 94, "unit": "%"}]}, {"smiles": "CSc1nc2nc(Cl)c(-c3c(Cl)cccc3Cl)c(N[C@@H](C)C(F)(F)F)n2n1", "note": "[drawing 60]", "values": [{"measurement": "Efficacy in %", "setting": "[3]", "value": 100, "unit": "%"}]}, {"smiles": "CSc1nc2nc(Cl)c(-c3c(F)cc(F)cc3F)c(N[C@@H](C)C(F)(F)F)n2n1", "note": "[drawing 61]", "values": [{"measurement": "Efficacy in %", "setting": "[3]", "value": 100, "unit": "%"}]}]}
